The test system of test [1] is experimental allergic encephalitis (EAE) in Lewis rats. The test can be described thus: Experimental allergic encephalitis (EAE) induced in Lewis rats by intraplantar MBP (fragment 68-84) in FCA. The test is classed as in vivo. The conditions noted are these: administered orally or intraperitoneally from day zero of induction.
Test [2] has as its system experimental allergic encephalitis (EAE) in SjL/j mice. Description: Experimental allergic encephalitis (EAE) induced in SjL/j mice by subcutaneous PLP (fragment 139-151) in FCA plus Bordetella pertussis. The conditions noted are these: administered orally or intraperitoneally from day zero of induction. The test is classed as in vivo.

On to `Cc1c(C(=O)NN2CCCCC2)nn(-c2ccc(Cl)cc2Cl)c1-c1ccc(Cl)cc1` [compound A, N-Piperidino-5-(4-chlorophenyl)-1-(2,4-dichlorophenyl)-4-methylpyrazole-3-carboxamide], for which the “severity of the condition (paralysis of the hind quarters)” value in test [1] and in test [2] was “statistically smaller” each time. For the same molecule, the “weight loss of the animals” value in test [1] (compared with vehicle alone) and in test [2] (compared with vehicle alone) was “significantly smaller” each time.
